The values below come from ChEMBL document CHEMBL3886958, “Substituted B-amino acid derivatives as CXCR3 receptor antagonists” (2016).

pIC50: −log10 of the molar value.

In this assay the target is T1, C-X-C chemokine receptor type 3 (Homo sapiens, UniProt P49682).
T1 sequence (P49682 whole entry): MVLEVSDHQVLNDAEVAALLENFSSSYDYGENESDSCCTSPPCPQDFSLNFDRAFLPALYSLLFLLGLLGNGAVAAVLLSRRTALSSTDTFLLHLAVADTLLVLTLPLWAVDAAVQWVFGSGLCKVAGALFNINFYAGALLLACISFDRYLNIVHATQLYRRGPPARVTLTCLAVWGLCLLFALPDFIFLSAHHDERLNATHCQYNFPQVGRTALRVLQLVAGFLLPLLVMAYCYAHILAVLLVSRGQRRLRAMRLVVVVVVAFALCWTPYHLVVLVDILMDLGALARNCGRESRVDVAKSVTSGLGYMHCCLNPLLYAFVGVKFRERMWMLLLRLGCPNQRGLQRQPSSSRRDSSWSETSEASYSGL
A word on the pIC50: it is the IC50 on a negative log10 scale, so that one unit is a factor of ten. `CCCN(Cc1ccc(OCCN2C(=O)CCC2=O)c(CC)c1)C(CC(=O)O)c1ccc(Cl)c(Cl)c1` (centres undefined) showed a pIC50 of 7.09.
Next, `COc1cc(CN(CC2CCCC2)C(C(=O)O)c2ccc(Cl)cc2)ccc1OCCN1C(=O)CCC1=O` (centres undefined): 6.33; `CCN(Cc1ccc(OCCN2C(=O)CCC2=O)c(OC)c1)C(c1ccc(Cl)cc1)C(C)(C)C(=O)O` (centres undefined): 6.53; `COc1cc(CN(CC2CCCC2)C(CC(=O)O)c2ccc(Cl)cc2)ccc1CCCN1C(=O)CCC1=O` (centres undefined): 6.75.
Next, `CCOC(=O)CC(c1ccc2c(c1)CCO2)N(Cc1ccc(OCCN2C(=O)CCC2=O)c(OC)c1)CC(C)C` (centres undefined): 6.16.
Next, `COc1cc(CN(CC2CCCCC2)[C@@H](CC(=O)O)c2ccc(Cl)c(Cl)c2)ccc1OCCN1C(=O)CN(C)C1=O`: 6.73; `COc1cc(CN(CC2CC2)C(CC(=O)O)c2ccc(Cl)c(F)c2)ccc1SCCN1C(=O)CCC1=O` (centres undefined): 7.40.
Regarding `CCCN(Cc1ccc(OCCN2C(=O)CCC2=O)c(OC)c1)[C@H](C(=O)O)c1ccc(Cl)c(Cl)c1`, the pIC50 is 6.31. Compared with the last compound, the pIC50 is 1.09 log units lower.
Next, `O=C(O)CC(c1ccc(Cl)c(Cl)c1)N(Cc1ccc(OCCN2C(=O)CCC2=O)c(F)c1)CC1CCCCC1` (centres undefined): 6.36.
